We go through 6 compounds from EP0755386B1, “BENZAMIDE DERIVATIVE, COMPOSITIONS CONTAINING SAID DERIVATIVE AND USE THEREOF” (Romark Laboratories, L.C., priority 1994, dated 1995).

The structures appear in SMILES notation. Values after ≈ are worked out from the molar mass of the structure shown. Where two headings read alike, the source gives them in different places.

Data set [1] relates to Trichomonas vaginalis. Kind of data set: Activity of aqueous compositions on protozoa. The following applies: aqueous composition (100 g) containing 10 g active agent.
Excerpt: (§2) Aqueous compositions (100 g) containing 10 g of an active agent have been prepared.
The test system of data set [2] is Trichomonas intestinalis. The experiment in a line: Activity of aqueous compositions on protozoa. Conditions: aqueous composition (100 g) containing 10 g active agent.
Excerpt: as §2
Data set [3] has as its system Encamoeba histolytica. The experiment in a line: Activity of aqueous compositions on protozoa. The following applies: aqueous composition (100 g) containing 10 g active agent.
Excerpt: as §2
Data set [4] relates to Encamoeba dispar. The experiment in a line: Activity of aqueous compositions on protozoa. The following applies: aqueous composition (100 g) containing 10 g active agent.
Excerpt: as §2
Data set [5] relates to Entamoeba coli. Kind of data set: Activity of aqueous compositions on protozoa. Conditions: aqueous composition (100 g) containing 10 g active agent.
Excerpt: as §2
The subject of data set [6] is Endolimax nana. The experiment in a line: Activity of aqueous compositions on protozoa. Conditions: aqueous composition (100 g) containing 10 g active agent.
Excerpt: as §2
Data set [7] concerns Balancidium coli. Kind of data set: Activity of aqueous compositions on protozoa. The following applies: aqueous composition (100 g) containing 10 g active agent.
Excerpt: as §2
Data set [8] deals with Diencamoeba fragilis. The experiment in a line: Activity of aqueous compositions on protozoa. Conditions: aqueous composition (100 g) containing 10 g active agent.
Excerpt: as §2
The test system of data set [9] is Giarda lamblia. Kind of data set: Activity of aqueous compositions on protozoa. The following applies: aqueous composition (100 g) containing 10 g active agent.
Excerpt: as §2
Data set [10] relates to Isospora belli. Kind of data set: Activity of aqueous compositions on protozoa. Conditions: aqueous composition (100 g) containing 10 g active agent.
Excerpt: as §2
The test system of data set [11] is Cryptosporidium parvum. Kind of data set: Activity of aqueous compositions on protozoa. Conditions: aqueous composition (100 g) containing 10 g active agent.
Excerpt: as §2
The subject of data set [12] is Bladtocystis hominis. Kind of data set: Activity of aqueous compositions on protozoa. The following applies: aqueous composition (100 g) containing 10 g active agent.
Excerpt: as §2
For data set [13], the system named is Enterocytozoon bieneusi. Kind of data set: Activity of aqueous compositions on protozoa. Conditions: aqueous composition (100 g) containing 10 g active agent.
Excerpt: as §2
The test system of data set [14] is Septata intestinalis. Kind of data set: Activity of aqueous compositions on protozoa. The following applies: aqueous composition (100 g) containing 10 g active agent.
Excerpt: as §2
Data set [15] deals with Strongyloïdes stercoralis. Kind of data set: Activity of aqueous compositions on helminths. Conditions: aqueous composition (100 g) containing 10 g active agent.
Excerpt: as §2
The test system of data set [16] is Taenia saginata. The experiment in a line: Activity of aqueous compositions on helminths. Conditions: aqueous composition (100 g) containing 10 g active agent.
Excerpt: as §2
Data set [17] relates to Taenia solium. The experiment in a line: Activity of aqueous compositions on helminths. The following applies: aqueous composition (100 g) containing 10 g active agent.
Excerpt: as §2
Data set [18] concerns Hymenolepis nana. Kind of data set: Activity of aqueous compositions on helminths. The following applies: aqueous composition (100 g) containing 10 g active agent.
Excerpt: as §2
Data set [19] concerns Staphylococcus aureus. The experiment in a line: Activity of aqueous compositions on aerobic bacteria. Conditions: aqueous composition (100 g) containing 10 g active agent.
Excerpt: as §2
In data set [20] the test system is Escherichia coli. Described as above. Conditions: aqueous composition (100 g) containing 10 g active agent.
Excerpt: as §2
Data set [21] relates to Protens vulgaris. Described as above. The following applies: aqueous composition (100 g) containing 10 g active agent.
Excerpt: as §2
Data set [22] concerns Bacceroides species. Kind of data set: Activity of aqueous compositions on anaerobic bacteria. Conditions: aqueous composition (100 g) containing 10 g active agent.
Excerpt: as §2
The subject of data set [23] is Peptococcus species. The description is as above. Conditions: aqueous composition (100 g) containing 10 g active agent.
Excerpt: as §2
Data set [24] has as its system Peptostreptococcus SPP. The data set is described as above. The following applies: aqueous composition (100 g) containing 10 g active agent.
Excerpt: as §2
In data set [25] the test system is Fusobacterium SPP. Described as above. The following applies: aqueous composition (100 g) containing 10 g active agent.
Excerpt: as §2
The test system of data set [26] is Candida Albicans. Kind of data set: Activity of aqueous compositions on fungus. Conditions: aqueous composition (100 g) containing 10 g active agent.
Excerpt: as §2
In data set [27] the test system is Trychophyton Mentagrophytes. The experiment in a line: Activity of aqueous compositions on fungus. The following applies: aqueous composition (100 g) containing 10 g active agent.
Excerpt: as §2
Data set [28] deals with Microsporum audovini. The experiment in a line: Activity of aqueous compositions on fungus. Conditions: aqueous composition (100 g) containing 10 g active agent.
Excerpt: as §2
The test system of data set [29] is Epidermophyton flocosum. Kind of data set: Activity of aqueous compositions on fungus. The following applies: aqueous composition (100 g) containing 10 g active agent.
Excerpt: as §2
The test system of data set [30] is Clostridum species. The experiment in a line: Activity of aqueous compositions on anaerobic bacteria. Conditions: aqueous composition (100 g) containing 10 g active agent.
Excerpt: as §2
The test system of data set [31] is HBV. The experiment in a line: Antiviral activity against HBV replication in cultures of 2.2.15 cells. Format: cell-based. Conditions: for selective index SI: HBV, CC 50/EC 50; for EC50: Hepatitis B virus, 216 h, read-out: effective concentration (EC 50). How it is done:
(§1) The protocol for essaying anti-HBV compounds in cultures of 2.2.15 cells can be briefly summarized as follows (Korba and Milman, 1991, Antiviral Res. 217:217) : • * Chronically HBV-producing human liver cells (Acs, et al, 1987, PNAS 84:4641) are seeded into 24 well tissue culture plates and grown to confluence. • * Test compounds are then added daily for a continuous 9 day period. Culture medium (changed daily during the treatment period) is collected and stored for analysis of extracellular (virion) HBV DNA after 0,3,6 and 9 days of treatment. • * Treated cells are lysed 24 hours following day 9 of treatment for the analysis of intracellular HBV genomic forms. • * HBV DNA is then analyzed in a quantitative and qualitative manner for overall levels of HBV DNA (both extracellular and intracellular DNA) and the relative rate of HBV replication (intracellular DNA). The protocol for determining toxicity of compounds in cultures of 2.2.15 cells can be briefly summarized as follows (Korba and Gerin, submited for publication) : • * 2.2.15 cells were grown to confluence in 96 well fat-bottomed tissue culture plates and treated with compounds (in 0.2 ml culture medium/well) as described above. Four concentrations of each compound were assayed, each in triplicate cultures, 3 to 10-fold steps. • * Untreated control cultures were maintained on each 96 well plate.

Data set [32] is described as follows: Toxicity in cultures of 2.2.15 cells, neutral red dye uptake. The following applies: human, 50 % inhibit of cell proliferation, read-out: cytotoxic concentration (CC 50). The class given is cell-based. How it is done:
as §1

In data set [33] the test system is Enterobius vermicularis. Kind of data set: Activity of aqueous compositions on helminths. The following applies: aqueous composition (100 g) containing 10 g active agent.
Excerpt: as §2
Data set [34] deals with Ascaris lumbricoides. Kind of data set: Activity of aqueous compositions on helminths. Conditions: aqueous composition (100 g) containing 10 g active agent.
Excerpt: as §2
Data set [35] concerns Necator americanus. The experiment in a line: Activity of aqueous compositions on helminths. The following applies: aqueous composition (100 g) containing 10 g active agent.
Excerpt: as §2
For data set [36], the system named is Anycylosloma duodenale. The experiment in a line: Activity of aqueous compositions on helminths. The following applies: aqueous composition (100 g) containing 10 g active agent.
Excerpt: as §2
In data set [37] the test system is Trichuris trichiura. The experiment in a line: Activity of aqueous compositions on helminths. Conditions: aqueous composition (100 g) containing 10 g active agent.
Excerpt: as §2
Data set [38] deals with Trichomonas vaginalis. Kind of data set: In vitro studies against Trichomonas vaginalis. The class given is cell-based. The following applies: for MIC: in vitro, Trichomonas vaginalis, read-out: Minimum Inhibitory Concentration.

Take `COC(=O)Nc1nc2ccc(C(=O)c3ccccc3)cc2[nH]1` [Compound P4, Mebendazole]: the ACTIVITY result in data set [1], in data set [2], in data set [3], in data set [4], in [5] and in [6] was “No” each time. The ACTIVITY entry in data set [7], in data set [8], in [9], in [10], in [11] and in data set [12] was “No” each time. For the same compound, the ACTIVITY entry in data set [13], in data set [14], in [15], in [16], in data set [17] and in data set [18] was “No” throughout. Also, the ACTIVITY result in [19], in data set [20], in data set [21], in data set [22], in [23] and in data set [24] was “No” each time. In addition, the ACTIVITY entry in data set [25], in data set [26], in data set [27], in [28], in [29] and in data set [30] was “No” each time.

Turning to `Nc1ccn([C@H]2CC[C@@H](CO)O2)c(=O)n1` [Zalcitabine], in data set [31], the “selective index SI” value is given as “about 145”. Moreover, the EC50 in data set [31] (HBV replication in 2.2.15 cells, 9 day treatment) stood at 1.8 ± 0.2 µg/mL (≈ 8.52 µM). Further, the CC50 at 9 days in data set [32] came to 261 ± 24 µg/mL (≈ 1240 µM).

For the compound `Cc1ncc([N+](=O)[O-])n1CCO` [Compound P5, Metronidazole], the ACTIVITY result in [11], in data set [12], in data set [13], in data set [14], in data set [33] and in data set [34] was “No” throughout. Further, the ACTIVITY entry in data set [35], in data set [36], in data set [37], in data set [15], in data set [16] and in [17] was “No” each time. The ACTIVITY entry in [18], in [19], in data set [20], in [21], in [26] and in data set [27] was “No” throughout. Moreover, the ACTIVITY result in [28] and in data set [29] was “No” each time.

On to `CC(=O)Oc1ccccc1C(=O)Nc1ncc([N+](=O)[O-])s1` [Compound B, 2-(acetolyloxy)-N-(5-nitro 2-thiazolyl) benzamide], for which, in [38], the MIC was 0.5 to 1.25 µg/mL (≈ 1.63 to 4.07 µM).

For the compound `CCCSc1ccc2nc(NC(=O)OC)[nH]c2c1` [Compound P3, Albendazole], the ACTIVITY entry in [1], in data set [2], in data set [3], in [4], in data set [5] and in data set [6] was “No” each time. Further, the ACTIVITY result in [7], in [8], in [9], in data set [11], in data set [12] and in data set [13] was “No” throughout. Moreover, the ACTIVITY result in data set [14], in data set [15], in data set [16], in data set [17], in data set [18] and in data set [19] was “No” throughout. Also, the ACTIVITY result in data set [20], in [21], in [22], in data set [23], in data set [24] and in data set [25] was “No” in each case. Also, the ACTIVITY result in [26] and in data set [30] was “No” throughout.

For the compound `O=C(Nc1ncc([N+](=O)[O-])s1)c1ccccc1O` [Compound A, 2-(hydroxy)-N-(5-nitro-2-thiazolyl) benzamide], the onset of action result in data set [38] (in vitro studies) is listed as “substantially immediate action”. Besides, the MIC in data set [38] lay within 1 to 1.25 µg/mL (≈ 3.77 to 4.71 µM). For the same compound, in data set [31], the “selective index SI” value is “higher than 500” and the EC50 was 1.8 ± 0.1 µg/mL (≈ 6.79 µM). Also, the CC50 at 9 days in data set [32] is greater than 1000 µg/mL.
